“And” between values parts separate entries of the source, which are not always exact repeats. Identical values can stand only once.
Columns and labels:
[1] = Automated ORAC assay, peroxyl radical (AAPH; ORAC ROO.); details: peroxyl radical from AAPH, 37 °C; Trolox equivalents
Procedure: (§1) 3.4.2. Automated Oxygen Radicals Absorbance Capacity (ORAC) Assay
(§2) ORAC was measured according to the method described by Prior [30], with some modifications. […] The copper-initiated prooxidant activity was calculated using [(AreaBlank − AreaSample)/AreaBlank] × 100 and expressed as prooxidant units; one unit equals the prooxidant activity that reduces the area under the fluorescein decay curve by 1% in the ORAC assay.

[2] = Automated ORAC assay, hydroxyl radical (H2O2-Cu2+; ORAC OH.); details: hydroxyl radical from H2O2 0.3% - Cu2+ 18 µM, 37 °C; Trolox equivalents
Procedure: as §1, §2

[3] = tested on: Fe (II)-induced microsomal lipid peroxidation (rat liver microsomes); experiment: Inhibition of Fe (II)-induced microsomal lipid peroxidation; type: biochemical; details: TBARS, purified compounds screened at 26.750 μg/mL, extract (HT) at 100 μg/mL
From the text: 3.4.4. Inhibition of Fe (II)-Induced Microsomal Lipid Peroxidation Assay
A modified assay described by Snijman et al. with little modifications.

[4] = biological target: T1, elastase (from porcine pancreas) (Sus scrofa, UniProt P00772); experiment: Elastase inhibition assay; type: biochemical; details: substrate SANA, 100 μg/mL optimum concentration; for IC50: read-out: Inhibitory Activitis (IC50) Elastase (converted)
T1 construct: purchased Sigma-Aldrich, Inc. (St. Louis, MO, USA); host or cells: porcine pancreas
T1 sequence (P00772 27-266): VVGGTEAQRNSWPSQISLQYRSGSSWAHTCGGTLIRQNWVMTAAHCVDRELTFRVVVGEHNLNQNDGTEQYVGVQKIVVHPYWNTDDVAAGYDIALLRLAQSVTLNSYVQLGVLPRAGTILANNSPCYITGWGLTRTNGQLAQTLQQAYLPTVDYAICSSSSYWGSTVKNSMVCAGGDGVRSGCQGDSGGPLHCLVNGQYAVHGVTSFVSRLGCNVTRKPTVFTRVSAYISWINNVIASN
Procedure: (§3) Organic solvents, methanol, acetonitrile (HPLC grade), ethanol, ethyl acetate, dichloromethane and hexane were supplied by Merck (Cape Town, South Africa). TLC was conducted on normal-phase (Merck) Silica gel 60 PF254 pre-coated aluminum plates. Column chromatography was performed using silica gel 60 H (0.040–0.063 mm particle size, Merck) and Sephadex LH-20 (Sigma-Aldrich, Cape Town, South Africa). NMR spectra were recorded on an Avance 400 MHz NMR spectrometer (Bruker, Rheinstetten, Germany) in deuterated chloroform and acetone, using the solvent signals as internal reference. HRMS analysis was conducted on an Ultimate 3000 LC (Dionex Sunnyvale, CA, USA) coupled to a Bruker QTOF with electrospray ionization (ESI) interface working in the positive ion mode.
3.4.6. Elastase Inhibition Assay
Inhibition of elastase by the test samples was assayed using N-succyl-(Ala)3-nitroanilide (SANA) as the substrate, monitoring the release of p-nitroanilide by the method described by Chompo et al. with little adjustment. The inhibitory activity determined the intensity of colour released during cleavage of SANA by the action of elastase. Briefly, 1 mM SANA was prepared in 0.1 M Tris-HCl buffer pH 8.0 and 200 µL of this solution was added to the 20 µL of sample solution in a 96-Well plate. The mixtures were vortexed and preincubated for 10 min at 25 °C and then 20 µL of elastase from porcine pancrease (0.03 units/mL) was added. The mixtures were further incubated for 10 min and the absorbance was measured at 410 nm. Methanol was used as control, while oleanolic acid used as a positive control.

[5] = Ferric-ion reducing antioxidant power assay (FRAP); details: ascorbic acid equivalents; absorbance 593 nm
Procedure: 3.4.1. Ferric-Ion Reducing Antioxidant Power Assay (FRAP)
Working FRAP reagent was prepared in accordance to the methods described previously. […] L-Ascorbic acid was used as a standard and the results were expressed as μM ascorbic acid equivalents per […] dry weight (μM AAE/g DW) of the test samples.

[6] = Copper-initiated prooxidant activity in the ORAC assay (Cu2+ without H2O2); details: Cu2+ (CuSO4) 18 µM without H2O2, 37 °C; prooxidant (arbitrary) units
Procedure: as §1, §2

[7] = Trolox equivalent absorbance capacity (TEAC) assay; details: Trolox equivalents; absorbance 734 nm, 25 °C
Procedure: 3.4.3. Trolox Equivalent Absorbance Capacity (TEAC) Assay
The total antioxidant activity of test samples were measured using previously described methods.

[8] = biological target: tyrosinase (from mushroom) (Agaricus bisporus, UniProt C7FF04); experiment: Tyrosinase enzyme assay; type: biochemical; details: substrate L-Tyrosine; screened at effective concentration of 50 μg/mL
tyrosinase (from mushroom), sequence (C7FF04 1-392): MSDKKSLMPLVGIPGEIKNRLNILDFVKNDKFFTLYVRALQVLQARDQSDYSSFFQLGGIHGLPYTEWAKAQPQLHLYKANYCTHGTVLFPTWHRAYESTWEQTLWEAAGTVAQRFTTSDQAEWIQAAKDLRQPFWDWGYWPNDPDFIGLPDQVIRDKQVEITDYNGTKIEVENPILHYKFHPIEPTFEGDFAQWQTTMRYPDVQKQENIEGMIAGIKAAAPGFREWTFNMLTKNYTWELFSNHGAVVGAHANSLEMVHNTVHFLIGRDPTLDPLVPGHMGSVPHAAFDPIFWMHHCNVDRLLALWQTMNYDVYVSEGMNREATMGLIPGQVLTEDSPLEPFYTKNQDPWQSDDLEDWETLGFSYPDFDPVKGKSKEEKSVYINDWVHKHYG
Procedure: as §3
Samples were dissolved in DMSO to a stock solution of 1 mg/mL, and further dilutions were then done with 50 mM sodium phosphate buffer (pH 6.5) for all working solutions. […] Incubation commenced for 30 min at room temperature and the enzyme activity was determined by measuring the absorbance at 490 nm.

Compound	Automated Oxygen Radical Absorbance Capacity (ORAC μM TE/g) ROO. [1]	Automated Oxygen Radical Absorbance Capacity (ORAC μM TE/g) OH. [2]	Inhibitory Activitis (IC50) Lipid Peroxidation [3]	IC50 [4]	FRAP [5]	Automated Oxygen Radical Absorbance Capacity (ORAC μM TE/g) Prooxidant [6]	TEAC [7]	Inhibitory Activitis (IC50) Tyrosinase [8]	Inhibitory Activitis (IC50) Elastase [4]
COc1ccc(-c2oc3cc(O)cc(O)c3c(=O)c2O)cc1 [Compound 9, 4'-methoxykaempferol]	10.491 ± 0.97 μM/g × 10^3	3.675 ± 1.40 μM/g × 10^6	10.520 µg/mL	> 333 µM	191.47 ± 1.39 μM AAE/g	3.790 ± 1.15 µM/g	261.30 ± 4.02 μM TE/g		
isoxanthohumol [Compound 2]	3.113 ± 17.59 μM/g × 10^3	2.910 ± 6.00 μM/g × 10^6	>26.750 µg/mL		619.91 ± 1.97 μM AAE/g	3.601 ± 2.23 µM/g	4170.66 ± 6.72 μM TE/g	>50 µg/mL	>100 µg/mL
CC(C)=CCc1c(O)cc(O)c2c1O[C@H](c1ccccc1)CC2=O [Compound 5, glabranin]	0.856 ± 17.35 μM/g × 10^3	2.997 ± 0.36 μM/g × 10^6	>26.750 µg/mL	> 308 µM	67.79 ± 14.27 μM AAE/g	2.971 ± 1.10 µM/g	204.15 ± 2.04 μM TE/g		
CC(C)=CCc1c(O)cc(O)c(C(=O)/C=C/c2ccccc2)c1O [Compound 3, 2',4',6'-trihydroxy-3'-prenylchalcone]	5.025 ± 6.16 μM/g × 10^3	3.771 ± 3.02 μM/g × 10^6	21.276 µg/mL	> 308 µM	817.94 ± 4.26 μM AAE/g	4.704 ± 0.27 µM/g	4529.01 ± 2.44 μM TE/g		
O=c1c(O)c(-c2ccc(O)c(O)c2)oc2cc(O)cc(O)c12 [Compound 7, quercetin]	17.836 ± 2.90 μM/g × 10^3	7.265 ± 0.71 μM/g × 10^6	2.931 µg/mL		4816 ± 7.42 μM AAE/g and 4816.31 ± 7.42 μM AAE/g	4.361 ± 0.78 µM/g	1361.70 ± 1.98 μM TE/g		
COc1cc2oc(-c3ccccc3)cc(=O)c2c(O)c1OC [Compound 10, mosloflavone]	2.403 ± 2.50 μM/g × 10^3	2.909 ± 8.41 μM/g × 10^6	10.720 µg/mL	> 335 µM	544.60 ± 6.98 μM AAE/g	6.482 ± 1.55 µM/g	699.66 ± 2.28 μM TE/g		
CC(C)=CCc1c(O)cc2c(c1O)C(=O)C[C@@H](c1ccccc1)O2 [Compound 4, isoglabranin]	1.063 ± 33.50 μM/g × 10^3	2.918 ± 4.13 μM/g × 10^6	>26.750 µg/mL	> 308 µM	7.052 ± 3.76 μM AAE/g	3.947 ± 0.29 µM/g	43.17 ± 6.26 μM TE/g		
CC(C)=CCOc1cc(O)c(C(=O)/C=C/c2ccccc2)c2c1C=CC(C)(C)O2 [Compound 1, 2'-hydroxy-5',6'-(2,2-dimethylpyrano)-4'-(O-prenyl)-chalcone]	2.833 ± 3.88 μM/g × 10^3	2.998 ± 1.67 μM/g × 10^6	>26.750 µg/mL	> 256 µM		2.036 ± 2.98 µM/g			
COc1ccc(-c2oc3cc(O)cc(O)c3c(=O)c2O)cc1O [Compound 8, 4'-methoxyquercetin]	12.545 ± 5.07 μM/g × 10^3	6.779 ± 3.40 μM/g × 10^6	6.449 µg/mL	274 µM	3584.17 ± 0.54 μM AAE/g	8.963 ± 2.79 µM/g	1009.01 ± 1.98 μM TE/g		
O=C(O[C@@H]1Cc2c(O)cc(O)cc2O[C@@H]1c1cc(O)c(O)c(O)c1)c1cc(O)c(O)c(O)c1 [EGCG, epigallocatechin gallate, reference compound]	14.970 ± 5.53 μM/g × 10^3	3.911 ± 4.65 μM/g × 10^6	0.929 µg/mL		3326.45 ± 5.76 μM AAE/g	6.483 ± 1.19 µM/g	11545.4 ± 17.28 μM TE/g		

Source: PMC6272301, “Inhibition of Oxidative Stress and Skin Aging-Related Enzymes by Prenylated Chalcones and Other Flavonoids from Helichrysum teretifolium” (Molecules, 2015)
